Assay results from the supplement of paper PMC10307832.

Columns and labels:
Assay in all cases: relative viability (nuclei count vs DMSO), 5 days (fraction); higher = more cells survive
Irinotecan + Alpelisib = compound: CCc1c2c(nc3ccc(OC(=O)N4CCC(N5CCCCC5)CC4)cc13)-c1cc3c(c(=O)n1C2)COC(=O)[C@]3(O)CC [Irinotecan] + Cc1nc(NC(=O)N2CCC[C@H]2C(N)=O)sc1-c1ccnc(C(C)(C)C(F)(F)F)c1 [Alpelisib] (partner 2 µM)
In short: (§1)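 Nuclei were stained with Hoechst during a one-step fixation (final 0.05% Triton X-100, 1% formaldehyde, 1 ug/ml Hoechst) carried out 5 days after dosing, then counted on 4× images. The cells, lung cancer lines in 1536-well plates, had been dosed by pin tool the day after seeding with one drug alone or a fixed anchor-drug dose plus five library-drug doses (not always all listed) in √10 steps. Relative viability is the nuclei count in treated wells divided by that in vehicle wells, and each value is the median of duplicate plates.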

Irinotecan + Vorinostat = compound: CCc1c2c(nc3ccc(OC(=O)N4CCC(N5CCCCC5)CC4)cc13)-c1cc3c(c(=O)n1C2)COC(=O)[C@]3(O)CC [Irinotecan] + O=C(CCCCCCC(=O)Nc1ccccc1)NO [Vorinostat] (partner 1 µM)
In short: as §1

MK-8033 + Tozasertib = compound: Cn1cc(-c2cnc3ccc4ccc(CS(=O)(=O)NCc5ccccn5)cc4c(=O)c3c2)cn1 [MK-8033] + Cc1cc(Nc2cc(N3CCN(C)CC3)nc(Sc3ccc(NC(=O)C4CC4)cc3)n2)n[nH]1 [Tozasertib] (partner 0.1 µM)
In short: as §1

MK-8033 + Dasatinib = compound: Cn1cc(-c2cnc3ccc4ccc(CS(=O)(=O)NCc5ccccn5)cc4c(=O)c3c2)cn1 [MK-8033] + Cc1nc(Nc2ncc(C(=O)Nc3c(C)cccc3Cl)s2)cc(N2CCN(CCO)CC2)n1 [Dasatinib] (partner 0.075 µM)
In short: as §1

Cell Line	relative viability (Irinotecan + Alpelisib; first compound 0.6325 µM)	relative viability (Irinotecan + Alpelisib; first compound 2 µM)	relative viability (Irinotecan + Alpelisib; first compound 6.325 µM)	relative viability (Irinotecan + Alpelisib; first compound 20 µM)	relative viability (Irinotecan + Vorinostat; first compound 0.6325 µM)	relative viability (Irinotecan + Vorinostat; first compound 2 µM)	relative viability (Irinotecan + Vorinostat; first compound 6.325 µM)	relative viability (Irinotecan + Vorinostat; first compound 20 µM)	relative viability (MK-8033 + Tozasertib; first compound 0.02 µM)	relative viability (MK-8033 + Tozasertib; first compound 0.06325 µM)	relative viability (MK-8033 + Tozasertib; first compound 0.2 µM)	relative viability (MK-8033 + Tozasertib; first compound 0.6325 µM)	relative viability (MK-8033 + Tozasertib; first compound 2 µM)	relative viability (MK-8033 + Dasatinib; first compound 0.02 µM)	relative viability (MK-8033 + Dasatinib; first compound 0.06325 µM)	relative viability (MK-8033 + Dasatinib; first compound 0.2 µM)	relative viability (MK-8033 + Dasatinib; first compound 0.6325 µM)	relative viability (MK-8033 + Dasatinib; first compound 2 µM)
NCI-H2023	0.607	0.468	0.202	0.0912	0.365	0.451	0.204	0.0592	0.374	0.273	0.251	0.221	0.122	0.603	0.437	0.421	0.342	0.288
NCI-H1734	0.625	0.331	0.143	0.233	–	0.522	0.195	0.175	0.243	0.215	0.3	0.261	0.242	0.441	0.469	0.429	0.411	0.395
PC-14	0.925	0.9	0.465	0.184	0.477	0.392	0.217	0.102	0.607	0.539	0.482	0.594	0.519	0.254	0.181	0.246	0.232	0.245
NCI-H3122	0.824	0.301	0.244	0.255	0.924	0.447	0.199	0.146	0.53	0.374	0.383	0.369	0.323	0.734	0.655	0.586	0.814	0.876
SW 1573	0.829	0.481	0.192	0.204	–	0.605	0.209	0.0706	0.175	0.214	0.187	0.223	0.232	0.444	0.508	0.502	0.424	0.466
HCC-15	0.478	0.239	0.144	0.173	0.452	0.333	0.252	0.197	0.498	0.3	0.35	0.427	0.352	0.639	0.541	0.542	0.6	0.616
NCI-H1666	0.697	0.552	0.486	0.337	0.849	0.706	0.788	0.631	0.588	0.587	0.589	0.648	0.614	0.907	0.769	0.73	0.872	0.827
NCI-H460	0.461	0.339	0.0811	0.0821	0.193	0.218	0.0779	0.0695	0.392	0.443	0.387	0.377	0.108	0.481	0.409	0.48	0.501	0.484
NCI-H2087	0.437	0.22	0.215	0.211	0.235	0.215	0.165	0.16	0.241	0.266	0.237	0.246	0.247	0.95	0.852	0.754	0.763	0.772
